Reference: patent US20160113888A1, “PHARMACEUTICAL COMPOSITION FOR TREATMENT OF CANCER” (NATIONAL INSTITUTE OF ADVANCED INDUSTRIAL SCIENCE AND …, priority 2013, published 2016)

Legend:
[1] = system: MMP-9; test: Expression level of MMP-9; format: cell-based, human; conditions: A549, 48 hours, AshLe-WEX 0.5% or TEG 0.5%, 1.0% or 2.0%, FIG. 14
From the text: (§1) In order to examine the antimetastatic activity mechanism of […] and triethylene glycol, the expression levels of matrix metalloproteases (MMP-9, MMP-3, and MMP-2) were examined. Human lung cancer cells (A549) were used for examination. […] This effect was not observed for MMP-2.

[2] = system: normal human fibroblasts (TIG-1); test: Cytotoxicity assay using MTT, TIG-1; format: cell-based; conditions: TIG-1, FIG. 5
Method: (§2) Human osteosarcoma cells (U2OS) were cultured in a humidified incubator (37° C., 5% CO2) using a medium in which Dulbecco's modified Eagle's medium (DMEM, Invitrogen) is added with 10% bovine fetal serum. The cells were cultured to become 40% to 60% confluent and treated with AshLe-WEX (final concentration: 1%; 200 μg/mL) and the 1st and 2nd fractions thereof (AshLe-WEX-F1 and F2), respectively. The cells were treated over about 48 hours during culture at 37° C.
(§3) AshLe-WEX and the fractions thereof were evaluated in terms of cytotoxicity by assay using MTT. After the above treatment, MTT (0.5 mg/mL) was added to each cell culture medium, followed by incubation for 4 hours. Next, the medium containing MTT was removed and 100 μL of DMSO was added to each well to completely dissolve formazan crystals. Absorbance was detected at 550 nm using a spectrophotometer (Wallac ARVO SX).
(§4) Cytotoxicity of triethylene glycol to human osteosarcoma cells (U2OS) and normal human fibroblasts (TIG-1) was tested in the manner described in item 5 above. […] Further, cell cycle analysis was conducted using human osteosarcoma cells (U2OS).

[3] = system: p53; test: Western blotting of p53 in TIG-1; format: cell-based, human; conditions: normal cells (TIG-1)
From the text: (§5) In order to investigate the cytotoxicity action mechanism of triethylene glycol, human osteosarcoma cells (U2OS) and normal human fibroblasts (TIG-1) were each treated with […] or triethylene glycol (TEG), and the expression of cancer-inhibiting proteins p53 and pRB was examined by SDS-PAGE and Western blotting. […] Numbers 1-5 in the bar charts of the expression level in the lower half of FIG. 10A correspond to numbers 1-5 of the lanes in the photo images in the upper half of FIG. 10A.

[4] = system: Keap1; test: Western blotting of Keap1 expression; format: cell-based; conditions: human lung cancer cells (A549), FIG. 13
[5] = system: pRB; test: Immunohistochemistry of pRB phosphorylation in U2OS; format: cell-based, human; conditions: cancer cells (U2OS), 0.5%, 48 hours, FIG. 11
Method: (§6) Immunohistochemistry was conducted for visualizing the degree of phosphorylation of p53 and pRB in human osteosarcoma cells (U2OS) and normal human fibroblasts (TIG-1) treated with […] or triethylene glycol. Treatment with […] or triethylene glycol was conducted by adding […] or triethylene glycol to a medium such that a final concentration becomes 0.5% and culturing the cells in each medium for 48 hours. The cells were stained with an anti-p53 antibody (DO-1) and an anti-pRB antibody ([…]). Immunostaining was visualized using an Alexa-488- or Alexa-594-labeled secondary antibody. Regarding pRB, which is a downstream effector of a cyclin-CDK complex, the degree of phosphorylation decreased in cancer cells treated with […] or triethylene glycol but increased in normal cells treated with […] or triethylene glycol (FIG. 11).

[6] = system: MMP-2; test: Expression level of MMP-2; format: cell-based, human; conditions: A549, 48 hours, AshLe-WEX 0.5% or TEG 0.5%, 1.0% or 2.0%, FIG. 14
From the text: as §1

[7] = system: glioblastoma cells (C6 Glioma cells); test: Differentiation induction assay of glioblastoma cells; format: cell-based; conditions: 0.6%, 48 hours
Method: Differentiation induction of glioblastoma cells and neuroblastoma cells by triethylene glycol was examined. Differentiation of glioblastoma cells was induced by treating the cells with 100 μmol of hydrogen peroxide for 2 to 3 hours and then culturing the cells in a medium containing […] or triethylene glycol (final concentration: 0.6%) for 48 hours. Cells of a control group were treated with hydrogen peroxide in the above manner and then cultured in a medium containing neither […] nor triethylene glycol.

[8] = system: cyclin-D1; test: Western blotting of cyclin-D1 in U2OS; format: cell-based, human; conditions: cancer cells (U2OS), FIG. 10B
Method: (§7) In order to investigate the cytotoxicity action mechanism of triethylene glycol, human osteosarcoma cells (U2OS) and normal human fibroblasts (TIG-1) were each treated with AshLe-WEX or triethylene glycol (TEG), and the expression of cancer-inhibiting proteins p53 and pRB was examined by SDS-PAGE and Western blotting. Treatment with AshLe-WEX or triethylene glycol (TEG) was conducted by adding AshLe-WEX (final concentration: 0.5%) or triethylene glycol (final concentration: 0.5%, 1.0%, or 2.0%) to a medium for culturing cells and culturing for 48 hours. […] Numbers 1-5 in the bar charts of the expression level in the lower half of FIG. 10A correspond to numbers 1-5 of the lanes in the photo images in the upper half of FIG. 10A. […] It was found based on the proportion of phosphorylated-p53/p53 that phosphorylation rate increased in cells treated with AshLe-WEX or triethylene glycol by 30% to 40%, as compared with the control group. […] The proportion of phosphorylated-pRB/RB decreased from about 0.5 in control cells to about 0.3 in cells treated with triethylene glycol ([…]) while it increased by about 20% in normal cells in contrast.
(§8) In parallel with the above, the expression levels of cyclin-B1, -D1, and -E1 and CDK-2, -4, and -6 were examined. […] On the other hand, the tendency regarding the expression levels for cyclin-D1 was the opposite of that for cyclin-B1. […]

[9] = system: cyclin-B1; test: Western blotting of cyclin-B1 in U2OS; format: cell-based, human; conditions: cancer cells (U2OS), FIG. 10B
From the text: as §5, with “10A. […] In parallel with the above, the expression levels of cyclin-B1, -D1, and -E1 and CDK-2, -4, and -6 were examined. […] On the other hand, the tendency regarding the expression levels for cyclin-D1 was the opposite of that for cyclin-B1. In the case of treatment with triethylene glycol, the expression level of cyclin-D1 increased in cancer cells but decreased in normal cells. The expression level of cyclin-E1 increased in both cancer cells and normal cells. The expression level of CDK-4 decreased in normal cells.” for “10A.”

[10] = system: human osteosarcoma cells (U2OS); test: Cell cycle analysis; format: cell-based; conditions: FIG. 6
Method: as §4

[11] = system: HT1080 cells (human fibrosarcoma cells); test: In vivo tumor metastasis assay, HT1080 tail vein injection; parameters: species or system Balb/c nude mice
Method: In vivo antitumor assay of […] and triethylene glycol was conducted using subcutaneous xenograft and tail vein metastasis model mice produced with the use of HT1080 cells from an invasive tumor with high lung metastasis (human fibrosarcoma cells, obtained from the JCRB Cell Bank). […] This administration treatment was started on day 8 after injection of HT1080 cells and repeated 12 times in total at intervals of two days. […] This assay was repeated twice using three mice for each group.

[12] = system: cyclin-E1; test: Western blotting of cyclin-E1 in U2OS; format: cell-based, human; conditions: cancer cells (U2OS), FIG. 10B
Method: as §7, §8

[13] = system: pRB; test: Western blotting of pRB in TIG-1; format: cell-based, human; conditions: normal cells (TIG-1), vs control
From the text: as §5

[14] = system: cyclin-B1; test: Western blotting of cyclin-B1 in TIG-1; format: cell-based, human; conditions: normal cells (TIG-1), vs control, FIG. 10B
From the text: as §5, with “10A. […] In parallel with the above, the expression levels of cyclin-B1, -D1, and -E1 and CDK-2, -4, and -6 were examined. […] On the other hand, the tendency regarding the expression levels for cyclin-D1 was the opposite of that for cyclin-B1. In the case of treatment with triethylene glycol, the expression level of cyclin-D1 increased in cancer cells but decreased in normal cells. The expression level of cyclin-E1 increased in both cancer cells and normal cells. The expression level of CDK-4 decreased in normal cells.” for “10A.”

[15] = system: CDK-4; test: Western blotting of CDK-4 in TIG-1; format: cell-based, human; conditions: normal cells (TIG-1), FIG. 10B
Method: as §7, §8

[16] = system: HT1080 cells (human fibrosarcoma cells); test: In vivo antitumor assay, HT1080 subcutaneous xenograft; parameters: species or system Balb/c nude mice; conditions: oral administration, 250 μL of 5% triethylene glycol with 2% carboxymethyl cellulose, 12 times at intervals of two days, FIG. 7
Method: In vivo antitumor assay of AshLe-WEX and triethylene glycol was conducted using subcutaneous xenograft and tail vein metastasis model mice produced with the use of HT1080 cells from an invasive tumor with high lung metastasis (human fibrosarcoma cells, obtained from the JCRB Cell Bank).
HT1080 cells (6×10^6 cells in 0.2 mL of growth medium) were subcutaneously injected into Balb/c nude mice (4-week-old female mice purchased from CLEA Japan, Inc.) at two sites per mouse, and an equivalent amount of the same was injected into the tail vein of each mouse. 2% carboxymethyl cellulose was administered with feed to a control group. A mixture containing AshLe-WEX (100-250 mg/kg body weight/administration) and 2% carboxymethyl cellulose was administered with feed to an AshLe-WEX group. A TEG group was given a 5% triethylene glycol aqueous solution via oral administration (at a dose per administration of 250 μL of a preparation of 5% triethylene glycol mixed with 2% carboxymethyl cellulose) or intraperitoneal injection (at a dose per administration of 100 μL of 5% triethylene glycol). […] For metastasis assay, each mouse was euthanized by cervical dislocation 5 weeks after tail vein injection, the lung was fixed with 4% formaldehyde, and the number of tumor colonies was counted. […]

[17] = system: pRB; test: Immunohistochemistry of pRB phosphorylation in TIG-1; format: cell-based, human; conditions: normal cells (TIG-1), 0.5%, 48 hours, FIG. 11
Method: as §6

[18] = system: p53; test: Western blotting of p53 in U2OS; format: cell-based, human
From the text: as §5

[19] = system: human osteosarcoma cells (U2OS); test: Cytotoxicity assay using MTT, U2OS; format: cell-based; conditions: FIG. 5
Method: as §2, §3, §4

[20] = system: MMP-3; test: Expression level of MMP-3; format: cell-based, human; conditions: A549, 48 hours, AshLe-WEX 0.5% or TEG 0.5%, 1.0% or 2.0%, FIG. 14
From the text: as §1

[21] = system: p21; test: Western blotting of p21 in TIG-1; format: cell-based, human; conditions: normal cells (TIG-1), 48 hours, vs control, FIG. 10A
From the text: as §5

[22] = system: IMR32 neuroblastoma cells; test: Differentiation induction assay of neuroblastoma cells; format: cell-based; conditions: 0.5%, FIG. 16
Method: Next, effects on IMR32 neuroblastoma cells treated with […] or triethylene glycol were examined. Differentiation of neuroblastoma cells was induced by treating the neuroblastoma cells with 100 μmol of hydrogen peroxide for 2 to 3 hours and then culturing the cells in a medium containing […] or triethylene glycol (final concentration: 0.5%). As control groups, a group of cells that had been treated with hydrogen peroxide in the above manner and then cultured in a medium containing neither […] nor triethylene glycol and a group of cells that no hydrogen peroxide treatment was conducted and cultured in a medium containing neither […] nor triethylene glycol without hydrogen peroxide treatment were prepared.

[23] = system: cyclin-D1; test: Western blotting of cyclin-D1 in TIG-1; format: cell-based, human; conditions: normal cells (TIG-1), FIG. 10B
Method: as §7, §8

[24] = system: cyclin-E1; test: Western blotting of cyclin-E1 in TIG-1; format: cell-based, human; conditions: normal cells (TIG-1), FIG. 10B
Method: as §7, §8

[25] = system: HT1080 cells; test: In vitro Matrigel invasion assay; format: cell-based, human; conditions: FIG. 9
[26] = system: pRB; test: Western blotting of pRB in U2OS; format: cell-based, human
From the text: as §5

[27] = cancer cells (U2OS), vs control

OCCOCCOCCO [triethylene glycol]
expression level of MMP-9 [1]: remarkably decreased | toxicity to normal human fibroblasts [2]: substantially no toxicity | expression level of p53 ([3]; 48 hours, vs control, FIG. 10A): increased | phosphorylated-p53 protein ([3]; anti-phosphoserine-specific antibody): increased | expression level of Keap1 [4]: increase | degree of phosphorylation of pRB (immunohistochemistry) [5]: decreased | decrease of expression level of MMP-2 [6]: not observed | cell form (differentiation induction) ([7]; after 100 μmol hydrogen peroxide 2 to 3 hours, FIG. 15A): astrocyte-like form | induction of GFAP (glial cell differentiation marker protein) ([7]; after hydrogen peroxide, FIG. 15B): upregulated | expression level of cyclin-D1 [8]: increased | expression level of cyclin-B1 [9]: decreased | cell cycle effect [10]: G1 arrest | antimetastatic activity ([11]; lung, 5 weeks after tail vein injection, FIG. 8): powerful antimetastatic activity | number of lung tumors ([11]; vs control group, FIG. 8): lower than that of the control group | lung tumor volumes ([11]; vs control group, FIG. 8B): significantly low | expression level of cyclin-E1 [12]: increased | increase of proportion of phosphorylated-pRB/RB [13]: about 20% | phosphorylated-pRB [13]: increased | expression level of cyclin-B1 [14]: increased | expression level of CDK-4 [15]: decreased | tumor growth [16]: effect of tumor growth inhibition was confirmed | degree of phosphorylation of pRB (immunohistochemistry) [17]: increased | expression level of p53 ([18]; U2OS, 48 hours, AshLe-WEX 0.5% or TEG 0.5%, 1.0% or 2.0%, vs control, FIG. 10A): increased | phosphorylated-p53 protein ([18]; cancer cells (U2OS), anti-phosphoserine-specific antibody): increased | concentration at which cancer cell growth is inhibited [19]: ≥ 0.5% | expression level of MMP-3 [20]: remarkably decreased | expression level of p21 [21]: increased | cell form (differentiation induction) ([22]; after 100 μmol hydrogen peroxide 2 to 3 hours): neuron-like form | neurofilament protein (NF200) ([22]; after hydrogen peroxide): increase | expression level of cyclin-D1 [23]: decreased | expression level of cyclin-E1 [24]: increased | invasion [25]: reduced | proportion of phosphorylated-pRB/RB ([26]; cancer cells (U2OS) treated, control cells about 0.5): about 0.3 | decrease of proportion of phosphorylated-pRB/RB [26, 27]: about 20% | phosphorylated-pRB [26, 27]: decreased
